Experimental data as given in patent publication US11638716B2, “Compounds, compositions, and methods for the treatment of disease” (F-star Therapeutics, Inc., priority 2017, dated 2023).

Columns and labels:
[1] = target: T1, human wtSTING-CTD (with SUMO tag) (Homo sapiens, UniProt Q86WV6, H232R); assay: Isothermal calorimetry against human wtSTING-CTD; assay type: binding; conditions: 25° C., 1.5 mM compound titrated against 132.5 μM protein
T1 construct: human wtSTING-CTD (with SUMO tag)
Experimental: Isothermal Calorimetry was carried out on a MicroCal Itc200 at 25° C.

RIG-I = assay: IRF/NF-kB reporter cells testing the role of RIG-I; assay type: cell-based; conditions: 20 hours
Experimental: FIG. 28 depicts cells stably expressing both or either one of the reporters to measure IRF and NF-kB activity were treated with a range of concentrations of compound 4 or DMSO control for 20 hours. IRF activity was assessed using QUANTI-luc to measure levels of Lucia and NF-kB activity was determined by measure SEAP levels at 620-655 nm. % induction was calculated from fold change in luminescence/absorbance compared to DMSO treated sample. EC50 values are generated by curve fit in Xlfit.

NF-kB = NF-kB signaling reporter (SEAP), compound 4 and diastereomers; assay type: cell-based; conditions: FIG. 34B, 20 hours
Experimental: Cells were treated with various concentrations of compound 4 and two of its diastereomers (4-A and 4-B), or DMSO control for 20 hours. Cells stably expressed one or both of the reporters used to measure NF-kB activity. NF-kB activity was determined by measure SEAP levels at 620-655 nm. % induction was calculated from fold change in luminescence/absorbance compared to DMSO treated sample.

T1 sequence (Q86WV6 135-379 H232R): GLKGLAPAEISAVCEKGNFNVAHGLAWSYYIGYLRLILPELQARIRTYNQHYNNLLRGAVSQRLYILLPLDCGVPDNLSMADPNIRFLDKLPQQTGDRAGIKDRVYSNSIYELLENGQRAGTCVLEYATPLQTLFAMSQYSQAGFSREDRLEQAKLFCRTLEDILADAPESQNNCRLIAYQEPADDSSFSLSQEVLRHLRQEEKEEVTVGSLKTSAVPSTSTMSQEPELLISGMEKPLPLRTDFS

Row | binding to STING (isothermal calorimetry) [1] | SMILES | involvement of RIG-I in the mechanism of action (RIG-I) | NF-kB signaling induction (NF-kB)
1 | bind to STING with high affinity | N.N.Nc1ncnc2c1ncn2[C@@H]1O[C@@H]2COP(=O)(S)O[C@@H]3[C@H](F)[C@@H](COP(=O)(O)O[C@H]2[C@H]1F)O[C@H]3n1ccc(=O)[nH]c1=O (stereo partly drawn) [Compound 3] | – | –
2 | – | CCCCCCCCCCOc1ccc(C(=O)Oc2ccc(CSP3(=O)OC[C@H]4O[C@@H](n5cnc6c(N)ncnc65)[C@H](F)[C@@H]4OP(=O)(O)OC[C@H]4O[C@@H](n5ccc(=O)[nH]c5=O)[C@H](O3)[C@@H]4F)cc2)cc1 (stereo partly drawn) [Compound 4] | not implicated | efficacious in inducing NF-kB signaling
